According to patent US20260242395A1, “AMINOHETEROARYL KINASE INHIBITORS” (ALLORION THERAPEUTICS INC, priority 2022, published 2026):

What was measured:
[1] = biological target: T1, CDK4/CyclinD1 (Homo sapiens, UniProt P11802); test: CDK4/CyclinD1 kinase inhibitory activity (Caliper mobility shift); format: biochemical; conditions: enzyme 20 nM, ATP 672 uM, 28° C. 30 min; read-out: CDK4/Cyclin D1 IC50
T1 construct: purchased ProQinase 0142-0143-1
Procedure: CDK4/CyclinD1 kinase inhibitory activity (IC50): 5 μl of various dilutions of test compound in 1× kinase buffer (20 mM HEPES, pH 7.5, 10 mM MgCl2, 2 mM DTT and 0.01% Triton X-100) was mixed with 10 μL of either CDK4/Cyclin D1 (ProQinase, 0142-0143-1 #, final concentration 20 nM in 1× Kinase buffer) or in 384 plates and incubated at room temperature for 10 min. To initiate each reaction, 10 μL of peptide solution containing fluorescently-labeled-peptide 8(5-FAM-IPTSPITTTYFFFKKK-COOH, GL, 112396 #, final concentration 3000 nM) and ATP (final concentration 672 uM for CDK4/CyclinD1) in 1×Kinase buffer was added to each of the wells containing test compound and CDK4/CyclinD1 mixture. The reaction is then allowed to proceed at 28° C. for 30 min and terminated by the addition of 25 μL stop buffer (100 mM HEPES pH 7.5, 50 mM EDTA, 0.2% Coating Reagent #3 (Perkin Elmer, 760050 #) and 0.015% Brij-35).
(§1) Following the kinase reaction, Caliper EZ reader II (Downstream voltages: −500V, Upstream voltages: −2250V, Base pressure −0.5 PSI, Screen pressure −1.2 PSI) was used to separate the phosphorylated (product) and the unphosphorylated (substrate) fluorescently-labeled peptide 8 based on their different mobility. Both substrate and product were measured and the ratio of these values were used to generate % conversion by Caliper EZ reader II. These conversion values were then transformed into % inhibition of kinase activity using the formula: % Inhibition=[(MA−X)/(MA−MI)]×100% where MA=conversion value of DMSO only controls, MI=conversion value of no enzyme controls and X=conversion value at any given compound dose. IC50 values were then calculated by plotting dose-response curves and then using the XLfit application in Excel software.

[2] = biological target: T2, CDK6/CyclinD3 (Homo sapiens, UniProt Q00534); test: CDK6/CyclinD3 kinase inhibitory activity (Caliper mobility shift); format: biochemical; conditions: enzyme 15 nM, ATP 800 μM, 28° C. 30 min; read-out: CDK6/Cyclin D3 IC50
T2 construct: purchased Carna 04-107
Procedure: CDK6/CyclinD3 kinase inhibitory activity (IC50): 5 μl of various dilutions of test compound in 1× kinase buffer (50 mM HEPES pH 7.5, 10 mM MgCl2, 2 mM DTT and 0.01% Brij-35) was mixed with 10 μL of CDK6/CyclinD3 (Carna, 04-107 #, final concentration 15 nM in 1× Kinase buffer) in 384 plates and incubated at room temperature for 10 min. To initiate each reaction, 10 μL of peptide solution containing fluorescently-labeled -peptide 8(5-FAM-IPTSPITTTYFFFKKK-COOH, GL, 112396 #, final concentration 3000 nM) and ATP (final concentration 800 μM for CDK6/CyclinD3 in 1× Kinase buffer was added to each of the wells containing test compound and CDK6/CyclinD3. The reaction is then allowed to proceed at 28° C. for 30 min and terminated by the addition of 25 μL stop buffer (100 mM HEPES pH 7.5, 50 mM EDTA, 0.2% Coating Reagent #3 (Perkin Elmer, 760050 #) and 0.015% Brij-35).
as §1

T2 sequence (Q00534 whole entry): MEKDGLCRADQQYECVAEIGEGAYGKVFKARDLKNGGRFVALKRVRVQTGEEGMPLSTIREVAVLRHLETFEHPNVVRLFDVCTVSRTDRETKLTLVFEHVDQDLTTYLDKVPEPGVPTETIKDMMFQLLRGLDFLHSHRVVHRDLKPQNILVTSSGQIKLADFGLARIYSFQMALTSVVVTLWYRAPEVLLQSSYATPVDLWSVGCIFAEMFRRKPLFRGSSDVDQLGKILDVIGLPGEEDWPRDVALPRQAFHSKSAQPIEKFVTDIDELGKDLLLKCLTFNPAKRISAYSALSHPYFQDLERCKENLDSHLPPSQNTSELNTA
T2 sequence (P30281 whole entry partner): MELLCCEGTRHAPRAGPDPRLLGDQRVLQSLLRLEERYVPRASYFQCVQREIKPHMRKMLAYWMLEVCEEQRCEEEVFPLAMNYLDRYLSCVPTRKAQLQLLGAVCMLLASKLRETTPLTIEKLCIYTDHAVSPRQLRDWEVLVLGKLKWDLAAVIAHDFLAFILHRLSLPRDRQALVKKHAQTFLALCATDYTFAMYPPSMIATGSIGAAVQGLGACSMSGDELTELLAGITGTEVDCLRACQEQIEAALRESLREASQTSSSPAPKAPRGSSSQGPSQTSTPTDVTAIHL
T1 sequence (P11802 whole entry): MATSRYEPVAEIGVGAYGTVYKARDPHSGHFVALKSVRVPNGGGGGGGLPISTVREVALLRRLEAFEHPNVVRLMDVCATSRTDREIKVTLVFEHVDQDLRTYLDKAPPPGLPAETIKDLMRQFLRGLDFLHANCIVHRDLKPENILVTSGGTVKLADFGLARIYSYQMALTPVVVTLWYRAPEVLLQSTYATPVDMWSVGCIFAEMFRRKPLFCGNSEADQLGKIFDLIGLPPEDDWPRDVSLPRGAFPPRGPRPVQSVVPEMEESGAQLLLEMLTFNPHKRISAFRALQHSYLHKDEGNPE
T1 sequence (P24385 whole entry partner): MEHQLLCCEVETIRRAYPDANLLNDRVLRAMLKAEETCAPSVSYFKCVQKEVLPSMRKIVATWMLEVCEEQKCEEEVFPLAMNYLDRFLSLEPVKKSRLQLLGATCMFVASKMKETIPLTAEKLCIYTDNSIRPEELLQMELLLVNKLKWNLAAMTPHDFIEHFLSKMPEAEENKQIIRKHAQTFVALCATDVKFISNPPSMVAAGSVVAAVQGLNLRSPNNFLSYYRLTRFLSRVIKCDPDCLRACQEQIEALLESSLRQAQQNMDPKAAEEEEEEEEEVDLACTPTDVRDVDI

Compound	IC50 [1] [nM]	IC50 [2] [nM]
CCC(O)c1cc2cc(-c3nc(N[C@@H]4CCOC[C@H]4O)ncc3Cl)cc(F)c2nc1C (single isomer, unassigned) [Example 39b]	< 10	100 to 1000
CNC(C)c1cnc2c(F)cc(-c3nc(N[C@@H]4CCOC[C@H]4O)ncc3F)cc2c1Cl (single isomer, unassigned) [Example 64a]	10 to 100	100 to 1000
CNC(C)c1cc2cc(-c3nc(N[C@@H]4CCOC[C@H]4O)ncc3F)cc(F)c2nc1C (single isomer, unassigned) [Example 54a]	< 10	100 to 1000
CNC(C)c1cnc2c(F)cc(-c3nc(N[C@@H]4CCOC[C@H]4O)ncc3Cl)cc2c1Cl (single isomer, unassigned) [Example 63a]	10 to 100	100 to 1000
Cc1n[nH]c2c1-c1cc(-c3nc(N[C@@H]4CCOC[C@H]4O)ncc3Cl)ccc1OC2 [Example 13, (3S,4R)-4-((5-chloro-4-(1-methyl-3,4-dihydrochromeno[3,4-c]pyrazol-8-yl)pyrimidin-2-yl)amino)tetrahydro-2H-pyran-3-ol]	10 to 100	100 to 1000
CC(O)c1cnc2c(F)cc(-c3nc(N[C@@H]4CCOC[C@H]4O)ncc3Cl)cc2c1Cl (single isomer, unassigned) [Example 40b]	< 10	100 to 1000
Cc1nc2c(F)cc(-c3nc(N[C@@H]4CCOC[C@H]4O)ncc3F)cc2cc1C(C)NC1CC1 (single isomer, unassigned) [Example 74b]	< 10	100 to 1000
CC(C)(O)C1COc2c(F)cc(-c3nc(N[C@@H]4CCOC[C@H]4O)ncc3Cl)cc2C1 (stereo partly shown) [Example 47]	10 to 100	100 to 1000
[2H]c1nc2c(F)cc(-c3nc(N[C@@H]4CCOC[C@H]4O)ncc3Cl)cc2c2c1CC1(CC1)NC2 [Example 72]	< 10	100 to 1000
CCc1c(C(C)(C)O)nnc2c(F)cc(-c3nc(N[C@@H]4CCOC[C@H]4O)ncc3Cl)cc12 [Example 61, (3S,4R)-4-((5-chloro-4-(4-ethyl-8-fluoro-3-(2-hydroxypropan-2-yl)cinnolin-6-yl)pyrimidin-2-yl)amino)tetrahydro-2H-pyran-3-ol]	10 to 100	100 to 1000

Second part, the molecule after the results:

IC50 [1] [nM]	IC50 [2] [nM]	Compound
10 to 100	100 to 1000	Cc1nc2c(F)cc(-c3ccnc(N[C@@H]4CCOC[C@H]4O)n3)cc2c(C)c1C(C)O (single isomer, unassigned) [Example 82b]
< 10	100 to 1000	[2H]c1nc(N[C@@H]2CCOC[C@H]2O)nc(-c2cc(F)c3nc(C)c4c(c3c2)CNC(C)(C)C4)c1F [Example 105]
10 to 100	≥ 1000	Cc1cc(C(C)(C)O)nc2c(F)cc(-c3nc(N[C@@H]4CCOC[C@H]4O)ncc3F)cc12 [Example 96]
10 to 100	≥ 1000	Cc1cnc(N[C@@H]2CCOC[C@H]2O)nc1-c1cc(F)c2nc(C)c3c(c2c1)CNC(C)(C)C3 [Example 104]
< 10	100 to 1000	CC(NC1CC1)c1cnc2c(F)cc(-c3nc(N[C@@H]4CCOC[C@H]4O)ncc3Cl)cc2c1Cl (single isomer, unassigned) [Example 90b]
10 to 100	100 to 1000	CN1Cc2c(cnc3c(F)cc(-c4nc(N[C@@H]5CCOC[C@H]5O)ncc4Cl)cc23)C(O)C1(C)C (single isomer, unassigned) [Example 111a]
10 to 100	100 to 1000	Cc1cc(C(C)(C)O)c2cc(-c3nc(N[C@@H]4CCOC[C@H]4O)ncc3F)cc(F)c2n1 [Example 76]
10 to 100	≥ 1000	COC1c2cnc3c(F)cc(-c4nc(N[C@@H]5CCOC[C@H]5O)ncc4F)cc3c2CNC1(C)C (single isomer, unassigned) [Example 108a]
10 to 100	100 to 1000	Cc1c(C(C)NC2CC2)cnc2c(F)cc(-c3nc(N[C@@H]4CCOC[C@H]4O)ncc3F)cc12 (single isomer, unassigned) [Example 93a]
< 10	100 to 1000	COC1c2cnc3c(F)cc(-c4nc(N[C@@H]5CCOC[C@H]5O)ncc4F)cc3c2CNC1(C)C (single isomer, unassigned) [Example 108b]
